Reference: patent US20260365653A1, “IRREVERSIBLE MUTEGFR INHIBITORS” (Bayer Aktiengesellschaft, priority 2022, published 2026)

Legend:
[1] = target: T1, mutEGFR (D770_N771insSVD) (Homo sapiens, UniProt P00533, DUP768-770); assay: Exon20-Mutant-EGFR (D770_N771insSVD) kinase assay (TR-FRET); assay type: biochemical; details: mutEGFR (D770_N771insSVD) kinase assay IC50, Table 2a; D770_N771insSVD; 2 mM ATP
T1 construct: GST-EGFR #3 (SVD between D770 and N771); made in house; host or cells: Sf9 insect cells (baculovirus)

[2] = target: T2, mutEGFR (D770_N771insNPG, T790) (Homo sapiens, UniProt P00533, INS770NPG/T790M); assay: mutEGFR (D770_N771insNPG, T790) kinase assay; assay type: biochemical; details: Table 2a, D770_N771insNPG
T2 construct: exact insNPG construct not described; in-house EGFR proteins were N-terminal GST fusions from baculovirus/insect cells (borders R669-A1210 given only for WT, insSVD, insASV)
From the text: The different EGFR proteins used in the biochemical kinase activity inhibition assays were generated inhouse by expression in insect cells using Baculo Virus system and subsequent purification as described in the following paragraphs.
The cDNAs encoding the various protein sequences from human EGFR human (P00533) were optimized for expression in eukaryotic cells and synthesized by the GeneArt Technology at Life Technologies.

BA/F3 (insSVD) cells = assay: Ba/F3-EGFR-insSVD cell survival assay (Cell Titer-Glo); assay type: cell-based; details: Mus musculus, BaF3, 48 h, Table 3a, cell survival, Cell Titer-Glo, with 10 ng/ml EGF, without IL-3
How it was run: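 Ba/F3 cells stably expressing retroviral EGFR-insSVD or insSVD T790M, grown without IL-3 on 10 ng/ml EGF, 4000 cells/well. Compound pinned in, 48 h at 37° C. Viability by CellTiter-Glo luminescence.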

T2 sequence (P00533 with tags, fused parts or gaps INS770NPG/T790M limits assumed): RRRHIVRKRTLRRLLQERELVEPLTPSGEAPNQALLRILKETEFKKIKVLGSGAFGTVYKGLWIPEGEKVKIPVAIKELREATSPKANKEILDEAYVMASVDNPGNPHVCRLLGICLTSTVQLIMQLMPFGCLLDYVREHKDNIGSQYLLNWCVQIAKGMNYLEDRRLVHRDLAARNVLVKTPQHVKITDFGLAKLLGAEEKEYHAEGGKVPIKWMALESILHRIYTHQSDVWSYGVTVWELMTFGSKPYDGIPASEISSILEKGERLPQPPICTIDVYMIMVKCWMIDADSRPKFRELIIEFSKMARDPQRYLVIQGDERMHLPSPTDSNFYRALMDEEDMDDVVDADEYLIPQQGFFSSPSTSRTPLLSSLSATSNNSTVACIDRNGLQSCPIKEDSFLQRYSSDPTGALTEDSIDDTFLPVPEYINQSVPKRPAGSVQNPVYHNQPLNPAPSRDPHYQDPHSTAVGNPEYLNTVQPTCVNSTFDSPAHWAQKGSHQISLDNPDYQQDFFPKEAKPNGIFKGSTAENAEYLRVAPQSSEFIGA
T1 sequence (P00533 with tags, fused parts or gaps DUP768-770): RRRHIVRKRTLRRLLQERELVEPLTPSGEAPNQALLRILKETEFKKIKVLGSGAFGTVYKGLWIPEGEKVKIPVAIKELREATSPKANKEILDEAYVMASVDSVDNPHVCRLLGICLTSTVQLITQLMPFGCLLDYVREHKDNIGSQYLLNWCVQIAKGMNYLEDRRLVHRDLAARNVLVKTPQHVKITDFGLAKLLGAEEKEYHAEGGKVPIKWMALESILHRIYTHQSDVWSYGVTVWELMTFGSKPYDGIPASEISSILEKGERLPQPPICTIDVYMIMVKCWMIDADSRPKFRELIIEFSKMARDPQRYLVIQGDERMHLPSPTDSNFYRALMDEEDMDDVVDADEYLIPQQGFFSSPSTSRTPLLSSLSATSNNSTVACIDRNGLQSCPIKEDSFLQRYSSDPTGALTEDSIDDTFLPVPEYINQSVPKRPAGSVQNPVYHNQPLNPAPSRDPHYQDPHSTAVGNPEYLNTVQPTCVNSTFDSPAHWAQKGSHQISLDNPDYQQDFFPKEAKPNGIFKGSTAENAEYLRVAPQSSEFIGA

| Structure (SMILES) | IC50 [1] [nM] | IC50 [2] [nM] | IC50 (BA/F3 (insSVD) cells) [nM] |
| --- | --- | --- | --- |
| O=C(/C=C/CF)N1CCn2nc(-c3ccc(Cl)cc3F)c(-c3ccncc3)c2C1 [Example 73, (2E)-1-[2-(4-chloro-2-fluorophenyl)-3-(pyridin-4-yl)-6,7-dihydropyrazolo[1,5-a]pyrazin-5(4H)-yl]-4-fluorobut-2-en-1-one] | 1.09 | 5.1 | 61 |
| O=C(/C=C/C(F)F)N1CCn2nc(-c3ccc(Cl)cc3F)c(-c3ccncc3)c2C1 [Example 74, (2E)-1-[2-(4-chloro-2-fluorophenyl)-3-(pyridin-4-yl)-6,7-dihydropyrazolo[1,5-a]pyrazin-5(4H)-yl]-4,4-difluorobut-2-en-1-one] | 0.183 | 0.807 | 34 |
| O=C(/C=C/Cl)N1CCn2nc(-c3ccc(Cl)cc3F)c(-c3ccncc3)c2C1 [Example 75, (2E)-3-chloro-1-[2-(4-chloro-2-fluorophenyl)-3-(pyridin-4-yl)-6,7-dihydropyrazolo[1,5-a]pyrazin-5(4H)-yl]prop-2-en-1-one] | 0.197 | 0.995 | 135 |
| CN1CC=C(C(=O)N2CCn3nc(-c4ccc(Cl)cc4F)c(-c4ccncc4)c3C2)C1 [Example 76, [2-(4-chloro-2-fluorophenyl)-3-(pyridin-4-yl)-6,7-dihydropyrazolo[1,5-a]pyrazin-5(4H)-yl](1-methyl-2,5-dihydro-1H-pyrrol-3-yl) methanone] | 30.3 | 77.3 | 666 |
| O=C(/C=C/CN1CCC1)N1CCn2nc(-c3ccc(Cl)cc3F)c(-c3ccncc3)c2C1 [Example 77, (2E)-4-(azetidin-1-yl)-1-[2-(4-chloro-2-fluorophenyl)-3-(pyridin-4-yl)-6,7-dihydropyrazolo[1,5-a]pyrazin-5(4H)-yl]but-2-en-1-one] | 0.347 | 1.6 | 25.9 |
| O=C(/C=C/CF)N1CCn2nc(-c3ccc(F)cc3)c(-c3ccncc3)c2C1 [Example 78, (2E)-4-fluoro-1-[2-(4-fluorophenyl)-3-(pyridin-4-yl)-6,7-dihydropyrazolo[1,5-a]pyrazin-5(4H)-yl]but-2-en-1-one] | 3.86 | 15.4 | 115 |
| O=C(/C=C/CN1CCCC1)N1CCn2nc(-c3ccc(F)cc3)c(-c3ccncc3)c2C1 [Example 79, (2E)-1-[2-(4-fluorophenyl)-3-(pyridin-4-yl)-6,7-dihydropyrazolo[1,5-a]pyrazin-5(4H)-yl]-4-(pyrrolidin-1-yl) but-2-en-1-one] | 1.47 | 2.51 | 62.9 |
| CO[C@H]1CCN(C/C=C/C(=O)N2CCn3nc(-c4ccc(F)cc4)c(-c4ccncc4)c3C2)C1 [Example 83, (2E)-1-[2-(4-fluorophenyl)-3-(pyridin-4-yl)-6,7-dihydropyrazolo[1,5-a]pyrazin-5(4H)-yl]-4-[(3S)-3-methoxypyrrolidin-1-yl]but-2-en-1-one] | 0.976 | 3.53 | 132 |
| O=C(/C=C/CN1CC(F)(F)C1)N1CCn2nc(-c3ccc(F)cc3)c(-c3ccncc3)c2C1 [Example 84, (2E)-4-(3,3-difluoroazetidin-1-yl)-1-[2-(4-fluorophenyl)-3-(pyridin-4-yl)-6,7-dihydropyrazolo[1,5-a]pyrazin-5(4H)-yl]but-2-en-1-one] | 13.4 | 50.6 | 1230 |
| O=C(C#CCN1CCOCC1)N1CCn2nc(-c3ccc(Cl)cc3F)c(-c3ccncc3)c2C1 [Example 85, 1-[2-(4-chloro-2-fluorophenyl)-3-(pyridin-4-yl)-6,7-dihydropyrazolo[1,5-a]pyrazin-5(4H)-yl]-4-(morpholin-4-yl) but-2-yn-1-one] | 0.731 | 2.43 | 34.6 |
| CC(C)(C)OC(=O)NC1(C#CC(=O)N2CCn3nc(-c4ccc(F)cc4)c(-c4ccncc4)c3C2)CC1 [Example 86, tert-butyl (1-{3-[2-(4-fluorophenyl)-3-(pyridin-4-yl)-6,7-dihydropyrazolo[1,5-a]pyrazin-5(4H)-yl]-3-oxoprop-1-yn-1-yl}cyclopropyl) carbamate] | 122 | 237 | 971 |
| NC1(C#CC(=O)N2CCn3nc(-c4ccc(F)cc4)c(-c4ccncc4)c3C2)CC1 [Example 89, 3-(1-aminocyclopropyl)-1-[2-(4-fluorophenyl)-3-(pyridin-4-yl)-6,7-dihydropyrazolo[1,5-a]pyrazin-5(4H)-yl]prop-2-yn-1-one] | 6.06 | 8.7 | 5060 |
| CC(C)(C)OC(=O)NCC#CC(=O)N1CCn2nc(-c3ccc(F)cc3)c(-c3ccncc3)c2C1 [Example 90, tert-butyl {4-[2-(4-fluorophenyl)-3-(pyridin-4-yl)-6,7-dihydropyrazolo[1,5-a]pyrazin-5(4H)-yl]-4-oxobut-2-yn-1-yl}carbamate] | 2.08 | 5.34 | 166 |
| NCC#CC(=O)N1CCn2nc(-c3ccc(F)cc3)c(-c3ccncc3)c2C1 [Example 91, 4-amino-1-[2-(4-fluorophenyl)-3-(pyridin-4-yl)-6,7-dihydropyrazolo[1,5-a]pyrazin-5(4H)-yl]but-2-yn-1-one] | 26.3 | 52.8 | 1410 |
| C=CC(=O)N1CCn2nc(Nc3ccc(Cl)cc3F)c(-c3ccnc4[nH]cc(C)c34)c2C1 [Example 92, 1-[2-(4-chloro-2-fluoroanilino)-3-(3-methyl-1H-pyrrolo[2,3-b]pyridin-4-yl)-6,7-dihydropyrazolo[1,5-a]pyrazin-5(4H)-yl]prop-2-en-1-one] | 24.6 | 53.6 | 125 |
| C=CC(=O)N1CCn2nc(Nc3ccc(C(F)(F)F)cc3)c(-c3ccnc4[nH]cc(C)c34)c2C1 [Example 94, 1-[3-(3-methyl-1H-pyrrolo[2,3-b]pyridin-4-yl)-2-[4-(trifluoromethyl)anilino]-6,7-dihydropyrazolo[1,5-a]pyrazin-5(4H)-yl]prop-2-en-1-one] | 213 | 403 | 2760 |
| C=CC(=O)N1CCn2nc(Nc3ccc(Cl)cc3F)c(-c3ccncc3)c2C1 [Example 95, 1-[2-(4-chloro-2-fluoroanilino)-3-(pyridin-4-yl)-6,7-dihydropyrazolo[1,5-a]pyrazin-5(4H)-yl]prop-2-en-1-one] | 40.6 | 99.5 | 1210 |
| C=CC(=O)N1CCn2nc(Nc3ccc(OC)c(F)c3)c(-c3ccncc3)c2C1 [Example 96, 1-[2-(3-fluoro-4-methoxyanilino)-3-(pyridin-4-yl)-6,7-dihydropyrazolo[1,5-a]pyrazin-5(4H)-yl]prop-2-en-1-one] | 2030 | 7960 | 7930 |
| C=CC(=O)N1CCn2nc(Nc3ccc(C(F)(F)F)cc3)c(-c3ccncc3)c2C1 [Example 97, 1-[3-(pyridin-4-yl)-2-[4-(trifluoromethyl)anilino]-6,7-dihydropyrazolo[1,5-a]pyrazin-5(4H)-yl]prop-2-en-1-one] | 626 | 3800 | 4360 |
| CN(C)C/C=C/C(=O)N1CCn2nc(-c3ccc(F)cc3)c(-c3ccnc4[nH]ccc34)c2C1 [Example 98, (2E)-4-(dimethylamino)-1-[2-(4-fluorophenyl)-3-(1H-pyrrolo[2,3-b]pyridin-4-yl)-6,7-dihydropyrazolo[1,5-a]pyrazin-5(4H)-yl]but-2-en-1-one] | 10.4 | 11.6 | 209 |
| Cc1ccc(-c2nn3c(c2-c2ccnc4[nH]ccc24)CN(C(=O)/C=C/CN(C)C)CC3)c(F)c1 [Example 99, (2E)-4-(dimethylamino)-1-[2-(2-fluoro-4-methylphenyl)-3-(1H-pyrrolo[2,3-b]pyridin-4-yl)-6,7-dihydropyrazolo[1,5-a]pyrazin-5(4H)-yl]but-2-en-1-one] | 5.72 | 57.1 | 337 |
| C[C@@H]1Cn2nc(-c3cccc(C#N)c3)c(-c3ccncc3)c2CN1C(=O)/C=C/CN(C)C [Example 100, 3-[(6R)-5-[(2E)-4-(dimethylamino)but-2-enoyl]-6-methyl-3-(pyridin-4-yl)-4,5,6,7-tetrahydropyrazolo[1,5-a]pyrazin-2-yl]benzonitrile] | 19.6 | 3.57 | 420 |
| C[C@H]1Cn2nc(-c3cccc(C#N)c3)c(-c3ccncc3)c2CN1C(=O)/C=C/CN(C)C [Example 101, 3-[(6S)-5-[(2E)-4-(dimethylamino)but-2-enoyl]-6-methyl-3-(pyridin-4-yl)-4,5,6,7-tetrahydropyrazolo[1,5-a]pyrazin-2-yl]benzonitrile] | 16.8 | 3.5 | 44.6 |
| C=CC(=O)N1CCn2nc(-c3ccc(C)cc3F)c(-c3ccnc4[nH]ccc34)c2C1 [Example 102, 1-[2-(2-fluoro-4-methylphenyl)-3-(1H-pyrrolo[2,3-b]pyridin-4-yl)-6,7-dihydropyrazolo[1,5-a]pyrazin-5(4H)-yl]prop-2-en-1-one] | 4.77 | 22.8 | 49.8 |
